Test results from patent US4564619A, “Carbostyril derivative” (Otsuka Pharmaceutical Co., Ltd., priority 1982, dated 1986).

How the values were obtained:
[1] = test system: collagen-induced aggregation in rabbit platelets; experiment: Inhibition of collagen-induced platelet aggregation in rabbit platelet rich plasma; format: cell-based; conditions: Oryctolagus cuniculus, read-out: Inhibition rate of collagen-induced aggregation; for inhibition at 100 µM (stock): Concentration of the test compound solution 10^-4 mole; for inhibition at 10 µM (stock): Concentration of the test compound solution 10^-5 mole
Method: (§1) The platelet aggregation inhibitory effect was measured by using a Platelet Aggregation Tracer Model PAT-6M (manufactured by Nikoh Bio-Science Co., Ltd.) by a method according to Kimura, et al., [IGAKU-NO-AYUMI (Progress in Medicine), Vol. 114, No. 9, pp. 718-727, Aug. 30, 1980, and Nature, pp. 927-929, 1962].
(§2) The blood sample used for the test was a 1:9 (by volume) mixture of "3.8%-CITRATE"® (a registered trademark for 3.8%-sodium citrate, manufactured by Green Cross Corp.) and whole blood collected from rabbits. Said sample was subjected to 10-minute centrifugal separation at 1,000 r.p.m. (200xG) to obtain a platelet rich plasma (PRP). The PRP thus obtained was separated, and the remaining blood sample was further subjected to 15-minute centrifugal separation at 3,000 r.p.m. (2,000xG) to obtain a platelet poor plasma (PPP).
(§3) The number of platelets in the PRP was counted by the Brecher-Clonkite Method, and the PRP was diluted with the PPP to prepare a PRP sample with a platelet concentration of 600,000/microliter to prepare for an adenosine diphosphate (ADP)-induced aggregation test, and a collagen-induced aggregation test. 0.2 Milliliter of the PRP sample was added to 2 microliters of a solution of a test compound of predetermined concentration and this mixture was placed in a 37° C. thermostat for one minute. Then 20 microliters of an ADP or collagen solution was added to the mixture. In this test, the ADP solution was prepared by adjustment to a concentration of 7.5×10^-5 M by using Auren-Beronal buffer solution (pH 7.35). Further, the collagen solution was prepared by adjustment to a concentration of 200 micrograms/ml by using collagen reagent of "Holm"® (manufactured by Hormon-Chemie Munchen, GmbH.) which was diluted wih a physiological saline solution.
(§4) The transmittance of the resultant test mixture was determined and the change of transmittance was recorded by using the aggregometer at a stirrer speed of 1,100 r.p.m.
(§5) The platelet aggregation inhibitory effect of the test compound was measured in terms of inhibition rate (%) with respect to the aggregation rate of the controls. The aggregation rate was calculated from the following formula.
(§6) Aggregation rate=[(c-a)/(b-a)]×100
(§7) The percent inhibition is calculated from the following formula.
(§8) Inhibition rate (%)=[(A-B)/A]×100
(§9) The inhibitory effect of the test compounds on collagen-induced aggregation in rabbit platelets is shown in Table 1, similarly such effect on ADP-induced aggregation in rabbit platelets is shown in Table 2.

[2] = test system: ADP-induced aggregation in rabbit platelets; experiment: Inhibition of ADP-induced platelet aggregation in rabbit platelet rich plasma; format: cell-based; conditions: Oryctolagus cuniculus, read-out: Inhibition rate of ADP-induced aggregation; for inhibition at 100 µM (stock): Concentration of the test compound solution 10^-4 mole; for inhibition at 10 µM (stock): Concentration of the test compound solution 10^-5 mole
Method: as §1, §2, §3, §4, §5, §6, §7, §8, §9

[3] = Change of blood pressure, intravenous administration, anesthetized dog; format: in vivo; set-up: unit not given here; conditions: femoral artery
Method: The change of blood flow in coronary artery and the change of blood pressure were measured by a method according to Yakura et al., [Japan Journal of Pharmacology, Vol. 57, pages 380-391 (1961)] and according to Taira, et al. [Clin. Exp. Pharmacol. Physiol., Vol. 6, pages 301-316, (1976)].
An adult bastard dog of either sex weighing 8-13 kg was anesthetized with sodium pentobarbital at the rate of 30 mg/kg by intraveneous administration, then the dog was fixed in supination and was theracotomized under a condition of forced breathing. After another intraveneous administration of sodium heparin at the rate of 500 U/kg, 100 U/kg per hour, the dog was subjected to the following experiments.
(2) Intraveneous administration
Morawitz's cannula was cannulated to the coronary sinus venosus through the auricula dextra cordis, and the blood in vein was circulated to the right carotid. The blood flow was measured by an electromagnetic blood flow meter equipped with a blood flow observation probe in the extracorporeal circulation path of the vein. The systolic force was measured by a systolometer (pick-up) placed at the left ventricle of heart, the blood pressure was measured from the femoral artery, and the heart rate was measured from the pulse. A compound to be tested was administered through the cannula being cannulated in femoral vein. The increased amount of the blood flow in coronary artery after the administration of the test compound is shown in Table 4, also the change of blood pressure is shown in Table 5.

C=CCOc1ccc(OCCCCOC(=O)C2=C(C)NC(C)=C(C(=O)OC)C2c2cccc([N+](=O)[O-])c2)c2c1NC(=O)CC2 (stereo not shown) [Compound 19, 5-{4-[2,6-Dimethyl-5-methoxycarbonyl-4-(3-nitrophenyl)-1,4-dihydropyridin-3-carboxy]-butoxy}-8-alloyloxy-3,4-dihydrocarbostyril]
inhibition at 100 µM (stock) [1]: 17% | inhibition at 100 µM (stock) [2]: 17% | Change of blood pressure ([3]; 3 micrograms/kg): -22 | Change of blood pressure ([3]; 10 micrograms/kg): -34 | Change of blood pressure ([3]; 30 micrograms/kg): -44 | Change of blood pressure ([3]; 100 micrograms/kg): -55

COC(=O)C1=C(C)NC(C)=C(C(=O)OCCOc2ccc3[nH]c(=O)ccc3c2)C1c1ccccc1[N+](=O)[O-] (stereo not shown) [Compound 20, 6-{2-[2,6-Dimethyl-5-methoxycarbonyl-4-(2-nitrophenyl)-1,4-dihydropyridin-3-carboxy]-ethoxy}carbostyril]
inhibition at 100 µM (stock) [1]: 100% | inhibition at 10 µM (stock) [1]: 100% | inhibition at 100 µM (stock) [2]: 100% | inhibition at 10 µM (stock) [2]: 65% | Change of blood pressure ([3]; 30 micrograms/kg): -4 | Change of blood pressure ([3]; 100 micrograms/kg): -8 | Change of blood pressure ([3]; 300 micrograms/kg): -32

COC(=O)C1=C(C)NC(C)=C(C(=O)OCCOc2ccc3c(c2)CCC(=O)N3)C1c1ccccc1[N+](=O)[O-] (stereo not shown) [Compound 21, 6-{2-[2,6-Dimethyl-5-methoxycarbonyl-4-(2-nitrophenyl)-1,4-dihydropyridin-3-carboxy]-ethoxy}-3,4-dihydrocarbostyril]
inhibition at 100 µM (stock) [1]: 100% | inhibition at 10 µM (stock) [1]: 99% | inhibition at 100 µM (stock) [2]: 58% | inhibition at 10 µM (stock) [2]: 27% | Change of blood pressure ([3]; 10 micrograms/kg): -7 | Change of blood pressure ([3]; 30 micrograms/kg): -12 | Change of blood pressure ([3]; 100 micrograms/kg): -28 | Change of blood pressure ([3]; 300 micrograms/kg): -42

COC(=O)C1=C(C)NC(C)=C(C(=O)OCCCOc2cccc3[nH]c(=O)ccc23)C1c1cccc([N+](=O)[O-])c1 (stereo not shown) [Compound 22, 5-{3-[2,6-Dimethyl-5-methoxycarbonyl-4-(3-nitrophenyl)-1,4-dihydropyridin-3-carboxy]-propoxy}carbostyril]
inhibition at 100 µM (stock) [1]: 100% | inhibition at 10 µM (stock) [1]: 21% | inhibition at 100 µM (stock) [2]: 62% | inhibition at 10 µM (stock) [2]: 13% | Change of blood pressure ([3]; 10 micrograms/kg): -2 | Change of blood pressure ([3]; 30 micrograms/kg): -8 | Change of blood pressure ([3]; 100 micrograms/kg): -18 | Change of blood pressure ([3]; 300 micrograms/kg): -36

COC(=O)C1=C(C)NC(C)=C(C(=O)OCCCCOc2ccc3[nH]c(=O)ccc3c2)C1c1ccccc1C(F)(F)F (stereo not shown) [Compound 24, 6-{4-[2,6-Dimethyl-5-methoxycarbonyl-4-(2-trifluoromethylphenyl)-1,4-dihydropyridin-3-carboxy]butoxy}carbostyril]
inhibition at 100 µM (stock) [1]: 100% | inhibition at 10 µM (stock) [1]: 30% | inhibition at 100 µM (stock) [2]: 100% | inhibition at 10 µM (stock) [2]: 62% | Change of blood pressure ([3]; 10 micrograms/kg): -6 | Change of blood pressure ([3]; 30 micrograms/kg): -18 | Change of blood pressure ([3]; 100 micrograms/kg): -30 | Change of blood pressure ([3]; 300 micrograms/kg): -44

COC(=O)C1=C(C)NC(C)=C(C(=O)OCCCCOc2ccc3c(c2)CCC(=O)N3)C1c1ccccc1SC (stereo not shown) [Compound 26, 6-{4-[2,6-Dimethyl-5-methoxycarbonyl-4-(2-methylthiophenyl)-1,4-dihydropyridin-3-carboxy]butoxy}-3,4-dihydrocarbostyril]
inhibition at 100 µM (stock) [1]: 100% | inhibition at 10 µM (stock) [1]: 19% | inhibition at 100 µM (stock) [2]: 87% | inhibition at 10 µM (stock) [2]: 22% | Change of blood pressure ([3]; 10 micrograms/kg): -6 | Change of blood pressure ([3]; 30 micrograms/kg): -10 | Change of blood pressure ([3]; 100 micrograms/kg): -21 | Change of blood pressure ([3]; 300 micrograms/kg): -42

COC(=O)C1=C(C)NC(C)=C(C(=O)OCCCCOc2ccc3c(c2)CCC(=O)N3)C1c1ccccc1Cl (stereo not shown) [Compound 27, 6-{4-[2,6-Dimethyl-5-methoxycarbonyl-4-(2-chlorophenyl)-1,4-dihydropyridin-3-carboxy]-butoxy}-3,4-dihydrocarbostyril]
inhibition at 100 µM (stock) [1]: 61% | inhibition at 100 µM (stock) [2]: 42% | Change of blood pressure ([3]; 3 micrograms/kg): -4 | Change of blood pressure ([3]; 10 micrograms/kg): -10 | Change of blood pressure ([3]; 30 micrograms/kg): -27 | Change of blood pressure ([3]; 100 micrograms/kg): -52

COC(=O)C1=C(C)NC(C)=C(C(=O)OCCCCOc2ccc3c(c2)CCC(=O)N3)C1c1ccccc1 (stereo not shown) [Compound 28, 6-[4-(2,6-Dimethyl-5-methoxycarbonyl-4-phenyl-1,4-dihydropyridin-3-carboxy)butoxy]-3,4-dihydrocarbostyril]
inhibition at 100 µM (stock) [1]: 63% | inhibition at 100 µM (stock) [2]: 52% | Change of blood pressure ([3]; 3 micrograms/kg): -1 | Change of blood pressure ([3]; 10 micrograms/kg): -10 | Change of blood pressure ([3]; 30 micrograms/kg): -7 | Change of blood pressure ([3]; 100 micrograms/kg): -20 | Change of blood pressure ([3]; 300 micrograms/kg): -47

COC(=O)C1=C(C)NC(C)=C(C(=O)OCCCCOc2ccc3c(c2)CCC(=O)N3)C1c1ccccc1C (stereo not shown) [Compound 29, 6-{4-[2,6-Dimethyl-5-methoxycarbonyl-4-(2-methylphenyl-1,4-dihydropyridin-3-carboxy)]-butoxy}-3,4-dihydrocarbostyril]
inhibition at 100 µM (stock) [1]: 69% | inhibition at 100 µM (stock) [2]: 59% | Change of blood pressure ([3]; 3 micrograms/kg): -7 | Change of blood pressure ([3]; 10 micrograms/kg): -23 | Change of blood pressure ([3]; 30 micrograms/kg): -45 | Change of blood pressure ([3]; 100 micrograms/kg): -70 | Change of blood pressure ([3]; 300 micrograms/kg): -80

COC(=O)C1=C(C)NC(C)=C(C(=O)OCCCCOc2ccc3c(c2)CCC(=O)N3)C1c1ccccc1C(=O)OC (stereo not shown) [Compound 30, 6-{4-[2,6-Dimethyl-5-methoxycarbonyl-4-(2-methoxycarbonyl)-1,4-dihydropyridin-3-carboxy]butoxy}-3,4-dihydrocarbostyril]
inhibition at 100 µM (stock) [1]: 100% | inhibition at 10 µM (stock) [1]: 3% | inhibition at 100 µM (stock) [2]: 89% | Change of blood pressure ([3]; 10 micrograms/kg): -1 | Change of blood pressure ([3]; 30 micrograms/kg): -16 | Change of blood pressure ([3]; 100 micrograms/kg): -38

COC(=O)C1=C(C)NC(C)=C(C(=O)OCCCOc2cc(=O)[nH]c3ccccc23)C1c1cccc([N+](=O)[O-])c1 (stereo not shown) [Compound 37, 4-{3-[2,6-Dimethyl-5-methoxycarbonyl-4-(3-nitrophenyl)-1,4-dihydropyridin-3-carboxy]propoxy}carbostyril]
inhibition at 100 µM (stock) [1]: 15% | inhibition at 100 µM (stock) [2]: 17% | Change of blood pressure ([3]; 30 micrograms/kg): -1 | Change of blood pressure ([3]; 100 micrograms/kg): -5 | Change of blood pressure ([3]; 300 micrograms/kg): -18

COC(=O)C1=C(C)NC(C)=C(C(=O)OCCCOc2ccc3[nH]c(=O)cc(C)c3c2)C1c1cccc([N+](=O)[O-])c1 (stereo not shown) [Compound 38, 4-Methyl-6-{3-[2,6-dimethyl-5-methoxycarbonyl-4-(3-nitrophenyl)-1,4-dihydropyridin-3-carboxy]propoxy}carbostyril]
inhibition at 100 µM (stock) [1]: 45% | inhibition at 100 µM (stock) [2]: 31% | Change of blood pressure ([3]; 10 micrograms/kg): -2 | Change of blood pressure ([3]; 30 micrograms/kg): -10 | Change of blood pressure ([3]; 100 micrograms/kg): -35

COC(=O)C1=C(C)NC(C)=C(C(=O)OCC(COc2ccc3[nH]c(=O)ccc3c2)OC(C)=O)C1c1cccc([N+](=O)[O-])c1 (stereo not shown) [Compound 43, 6-{3-[2,6-Dimethyl-5-methoxycarbonyl-4-(3-nitrophenyl)-1,4-dihydropyridin-3-carboxy]-2-acetoxypropoxy}carbostyril]
inhibition at 100 µM (stock) [1]: 100% | inhibition at 10 µM (stock) [1]: 100% | inhibition at 100 µM (stock) [2]: 100% | inhibition at 10 µM (stock) [2]: 100% | Change of blood pressure ([3]; 30 micrograms/kg): -4 | Change of blood pressure ([3]; 100 micrograms/kg): -16 | Change of blood pressure ([3]; 300 micrograms/kg): -23
